According to patent US20200069607A1, “MOUTHWASH FOR TREATING ORAL CANCERS” (THE BOARD OF REGENTS OF THE UNIVERSITY OF TEXAS SYSTEM, priority 2016, published 2020):

Key:
Ca127 = assay: Clonogenic assay, Ca127 cells
From the text: (§3) FIGS. 3A-D: Clonogenic Assay of Ca127 (FIGS. 3A and 3C) and HeLa cells (FIGS. 3B and 3D).

Ca127 (OSCC) cells = assay: Cell viability / proliferation (MTS) assay, Ca127 cells; type: cell-based; details: treated 24 hours, p<0.001, read-out: IC50, anti-proliferative effect
TRPA1 = target: T1, TRPA1 (Homo sapiens, UniProt O75762); assay: Calcium imaging of CHO cells overexpressing TRPA1; type: cell-based
T1 construct: expressed in transfected cells; host or cells: CHO cells
From the text: (§1) FIGS. 6A-D: Calcium imaging of CHO cells overexpressing TRPA1 (FIG. 6A) or TRPV1 (FIG. 6B). Calcium imaging of cancer cell lines, Ca127 (FIG. 6C) and HeLa (FIG. 6D).

[1] = tested on: HeLa (Cervical cancer) cells; assay: Cell viability / proliferation assay, HeLa cells; details: Homo sapiens, 48 h, read-out: IC50, anti-proliferative effect
HeLa cells [2] = assay: Clonogenic assay, HeLa cells
From the text: as §3

TRPV1 = target: T2, TRPV1 (Homo sapiens, UniProt Q8NER1); assay: Calcium imaging of CHO cells overexpressing TRPV1; type: cell-based
T2 construct: expressed in transfected cells; host or cells: CHO cells
From the text: as §1

cleaved PARP (c-PARP) [3] = assay: Western blot of cleaved PARP, Ca127 cells; type: cell-based; details: increasing concentrations of thymol
From the text: (§2) […]. […] […].

HeLa cells [4] = assay: Calcium imaging of HeLa cells; type: cell-based; details: negative for TRPA1, thymol treatment
From the text: as §1, §2

Ca127 cells = assay: Calcium imaging of Ca127 cells; type: cell-based; details: for effect of inhibitor pre-treatment on calcium influx in response to thymol: Ca127 cells, pre-treatment followed by thymol 400 μM
From the text: as §1, §2

[5] = tested on: solid tumors (breast, lung, prostate, colon, cervical); assay: Anti-tumor effects against solid tumors (inventor's data); details: all types of solid tumors (breast, lung, prostate, colon, cervical)
From the text: However head and neck cancer is 90% of squamous cell origin.

Ca127-derived tumors = assay: Ca127 mouse xenograft, intra-tumor injection
HeLa-derived tumors = assay: HeLa mouse xenograft, intra-tumor injection
cleaved PARP (c-PARP) [6] = assay: Western blot of cleaved PARP, HeLa cells; type: cell-based; details: increasing concentrations of thymol
From the text: as §2

T2 sequence (Q8NER1 whole entry, species assumed): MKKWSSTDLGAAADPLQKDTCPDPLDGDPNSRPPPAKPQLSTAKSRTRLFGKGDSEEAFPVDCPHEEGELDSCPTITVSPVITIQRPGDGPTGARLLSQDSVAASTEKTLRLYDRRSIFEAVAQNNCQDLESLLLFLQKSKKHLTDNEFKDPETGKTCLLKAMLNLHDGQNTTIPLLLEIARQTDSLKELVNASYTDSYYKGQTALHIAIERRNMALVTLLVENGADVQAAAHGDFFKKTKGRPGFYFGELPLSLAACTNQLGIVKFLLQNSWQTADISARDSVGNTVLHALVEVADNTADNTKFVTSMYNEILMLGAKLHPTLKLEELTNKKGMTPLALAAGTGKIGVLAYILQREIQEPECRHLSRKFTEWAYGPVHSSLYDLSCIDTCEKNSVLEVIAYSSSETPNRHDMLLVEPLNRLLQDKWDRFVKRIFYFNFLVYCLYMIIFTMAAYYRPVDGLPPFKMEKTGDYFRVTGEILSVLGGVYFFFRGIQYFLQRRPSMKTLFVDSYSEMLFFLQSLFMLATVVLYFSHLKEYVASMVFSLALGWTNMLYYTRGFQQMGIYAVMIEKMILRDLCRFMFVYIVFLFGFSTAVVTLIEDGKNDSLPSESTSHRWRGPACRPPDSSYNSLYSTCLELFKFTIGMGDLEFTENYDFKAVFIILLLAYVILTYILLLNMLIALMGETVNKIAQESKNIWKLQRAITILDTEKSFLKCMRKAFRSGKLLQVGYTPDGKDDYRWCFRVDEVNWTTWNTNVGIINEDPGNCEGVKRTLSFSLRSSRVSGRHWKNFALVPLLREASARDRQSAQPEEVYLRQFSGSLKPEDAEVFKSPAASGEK
T1 sequence (O75762 whole entry, species assumed): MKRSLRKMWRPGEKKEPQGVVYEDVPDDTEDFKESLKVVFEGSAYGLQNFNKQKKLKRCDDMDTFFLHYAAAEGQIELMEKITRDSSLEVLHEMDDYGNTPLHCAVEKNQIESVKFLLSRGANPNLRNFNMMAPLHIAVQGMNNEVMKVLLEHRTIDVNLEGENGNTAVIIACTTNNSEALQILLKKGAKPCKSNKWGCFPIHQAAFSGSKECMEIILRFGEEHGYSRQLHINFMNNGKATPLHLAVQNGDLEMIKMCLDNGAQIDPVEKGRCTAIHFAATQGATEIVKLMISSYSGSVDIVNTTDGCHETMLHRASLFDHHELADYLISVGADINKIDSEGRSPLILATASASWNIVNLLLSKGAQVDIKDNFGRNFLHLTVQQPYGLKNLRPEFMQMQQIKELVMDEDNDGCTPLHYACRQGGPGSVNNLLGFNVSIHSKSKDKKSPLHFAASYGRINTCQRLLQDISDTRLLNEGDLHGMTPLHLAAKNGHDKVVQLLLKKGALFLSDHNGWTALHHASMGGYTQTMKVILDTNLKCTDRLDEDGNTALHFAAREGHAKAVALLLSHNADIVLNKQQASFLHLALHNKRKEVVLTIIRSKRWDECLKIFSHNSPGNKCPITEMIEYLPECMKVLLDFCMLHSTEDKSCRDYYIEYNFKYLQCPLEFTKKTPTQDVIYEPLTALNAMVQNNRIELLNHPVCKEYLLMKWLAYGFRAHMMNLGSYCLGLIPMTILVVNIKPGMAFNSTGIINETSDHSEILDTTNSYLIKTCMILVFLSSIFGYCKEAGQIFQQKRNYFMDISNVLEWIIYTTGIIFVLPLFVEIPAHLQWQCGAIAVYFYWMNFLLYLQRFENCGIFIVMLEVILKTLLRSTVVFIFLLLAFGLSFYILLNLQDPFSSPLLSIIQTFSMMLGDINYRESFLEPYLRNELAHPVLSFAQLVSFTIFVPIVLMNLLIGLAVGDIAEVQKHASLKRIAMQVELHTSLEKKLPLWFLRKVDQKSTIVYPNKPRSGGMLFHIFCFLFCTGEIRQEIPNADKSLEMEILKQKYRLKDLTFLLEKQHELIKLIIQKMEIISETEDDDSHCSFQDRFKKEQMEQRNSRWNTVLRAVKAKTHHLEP

SMILES | colony formation (Ca127; Ca127 (FIGS. 3A-D), one minute exposure, 10 days) | colony formation (Ca127; Ca127, single two minute exposure, 4.3 mM, ten days) | IC50 (Ca127 (OSCC) cells) [µM] | TRPA1 channel activation (calcium imaging) (TRPA1) | IC50 [1] [µM] | colony formation (HeLa cells [2]; HeLa (FIGS. 3A-D), one minute exposure, 10 days) | colony formation (HeLa cells [2]; HeLa, single two minute exposure, 4.3 mM, ten days) | TRPV1 channel activation (calcium imaging) (TRPV1) | activation of cleaved PARP (apoptosis) (cleaved PARP (c-PARP) [3]) | calcium response (HeLa cells [4]) | calcium influx (Ca127 cells; Ca127 cells expressing TRPA1, thymol 400 μM) | anti-tumor effects [5] | median tumor volume (Ca127-derived tumors; Day 26, thymol 4.3 mM every other day, control 400 mm^3) [mm^3] | tumor volume compared to control (Ca127-derived tumors; by day 16, 4.3 mM intra-tumor every other day, p<0.001) | average tumor volume (Ca127-derived tumors; thymol 4.3 mM intra-tumor every other day for 26 days, control 400 mm^3) [mm^3] | median tumor volume (HeLa-derived tumors; Day 26 as printed, thymol 4.3 mM every other day for 22 days, control 900 mm^3) [mm^3] | tumor volume compared to control (HeLa-derived tumors; by day 18, remained through day 22, 4.3 mM intra-tumor every other day, p<0.001) | average tumor volume (HeLa-derived tumors; thymol 4.3 mM intra-tumor every other day for 22 days, control 900 mm^3) [mm^3] | activation of cleaved PARP (apoptosis) (cleaved PARP (c-PARP) [6]) | effect of inhibitor pre-treatment on calcium influx in response to thymol (Ca127 cells)
Cc1ccc(C(C)C)c(O)c1 [thymol, 2-isopropyl-5-methylphenol] | abolished colony formation | abolished colony formation | 400 | activates TRPA1 channels | 400 | abolished colony formation | abolished colony formation | not TRPV1 channels | dose-dependent activation | did not respond | small calcium influx | anti-tumor effects | 100 | significant reduction | 90 | 500 | significant reduction | 500 | dose-dependent activation | 
O=C(O)c1ccc(S(=O)(=O)N(Cc2ccc(OC(F)(F)F)cc2)c2ncc(C(F)(F)F)cc2Cl)cc1 [RQ00203078] |  |  |  |  |  |  |  |  |  |  |  |  |  |  |  |  |  |  |  | reduced calcium influx
CC(C)c1ccc(NC(=O)Cn2cnc3c2c(=O)n(C)c(=O)n3C)cc1 [HC030031] |  |  |  |  |  |  |  |  |  |  |  |  |  |  |  |  |  |  |  | nearly abolished all calcium influx
